# Key:
# [1] = system: lymphocytes from the spleen of a Swiss mouse; assay: Immunosuppressing activity on freshly isolated lymphocytes, vital cells by flow-through cytometer after 2 days; assay type: cell-based; settings: vital cells after 2 days
# Excerpt: Many anti-tumor agents have not only a cytotoxic effect on tumor cells, but also on the blood cell system. This leads to a weakening of the immune defence, which can, in turn, be specifically employed to suppress the rejection reaction after an organ transplantation for example. Also use of the main compounds, optionally in combination with other immunological diseases (for example, psoriasis or autoimmune diseases) seems likely. In order to test the possibility for a therapeutic use in illnesses of this type, the substance activity was tested on freshly isolated lymphocytes as follows:
# The spleen of a Swiss mouse served as a lymphocyte source. The lymphocyte population was isolated from the spleen cell suspension over a ficoll gradient and taken up in IMEM-ZO culture medium with 0.1% dextran 70,000 and 2% foetal calf serum. […] Subsequently, 10,000 cells per each sample were measured on a flow-through cytometer and the percentage amount of vital cells in the population was determined. By means of the dose-response curves, IC50-values were calculated which were also employed in the following Tables for the characterization of the individual substances: […]
# [2] = system: HepG2 cells derived from a human liver carcinoma; assay: Growth inhibition of HepG2 cells, sulforhodamin-B-method, six days; assay type: cell-based; settings: six days of substance incubation
# Method: HepG2 cells derived from a human liver carcinoma plated at a density of 20,000 cells/ml in 12-well plastic dishes. Cultivation occurred in Richters IMEM-ZO nutrient medium with 5% foetal calf serum (FCS) in a tissue culture incubator with a gas mixture of 5% CO2 and 95% air at a temperature of 37° C. One day after plating, the culture medium was aspirated from the cells and replaced by fresh medium which contained the respective concentrations of the test substances. For the individual concentrations and the controls without test substances, three-fold batches were done for each. Three days after the beginning of treatment, the medium was again renewed with the test compounds. After six days of substance incubation, the test was ended and the protein amount in the individual wells was determined with the sulforhodamin-B-method (according to P. Skehan et al.: New Colorimetric Cytotoxicity Assay for Anticancer-Drug Screening. J. Natl. Cancer Inst. 82: 1107–1112, 1990). The IC50-values (defined as that concentration in which the cell growth was inhibited by 50%) was taken from the dose-response curves and given as a comparative measurement for the activity of the test compounds.
substance,measurement,setting,value
"N-[6-(2,5-dioxo-3,4-diphenyl-2,5-dihydropyrrol-1-yl)-hexyl])-3-pyridin-3-yl-acrylamide [substance 58]",IC50,[1],60 nM
same,IC50,[2],500 nM

# From patent US7192967B1, “Cyclic imide-substituted pyridylalkane, alkene, alkine carboxamides useful as cytostatic and immunosuppressive agents” (Astellas Pharma GmbH, priority 1997, dated 2007)
